In patent US20250127768A1, “THERAPEUTIC TARGETING OF INOSITOL PYROPHOSPHATE SYNTHESIS IN CANCER” (The Broad Institute, Inc., priority 2022, published 2025) one finds phosphate efflux and proliferation effects data, which are given here for one compound.

Assay [1] relates to XPR1-dependent cell lines (RMGI). Nature of the assay: phosphate efflux in ovarian cancer cell line (FIG. 6A). The conditions noted are these: as compared to RBD (protein inhibitor of XPR1). Type of assay: cell-based. From the text: (§1) FIG. 6A-FIG. 6B—IP6K inhibitors. FIG. 6A. Graph showing phosphate efflux in an ovarian cancer cell line treated with TNP or RBD_00. FIG. 6B. Graph showing cell viability in an ovarian cancer cell line treated with TNP or RBD_00 and the indicated CRISPR guide sequences.

A further assay deals with ovarian cancer cell line. Nature of the assay: cell viability in ovarian cancer cell line with CRISPR guide sequences (FIG. 6B). It is filed as cell-based. The conditions noted are these: high doses; specificity to XPR1-dependent cell lines.
Excerpt: as §1

For the compound `O=[N+]([O-])c1ccc(CNc2nc(NCc3cccc(C(F)(F)F)c3)nc3nc[nH]c23)cc1` [TNP, N2-(m-(trifluoromethyl)benzyl) N6-(p-nitrobenzyl)purine], the phosphate efflux entry in assay [1] is “did not observe a decrease in phosphate efflux”. The proliferation effects entry with ovarian cancer cell line was “Proliferation effects were observed at high doses of TNP, but the effects were not specific to XPR1-dependent cell lines”.
